Results taken from the CheMixHub ionic liquid set.

Assay: xn = mol fraction of the nth substance listed

CCCCCCCCCCCCCCCC[n+]1ccccc1.[Cl-] + CS(C)=O + O
electrical conductivity [S/m], 100 kPa
Details | 293.15 K | 298.15 K | 303.15 K | 308.15 K
x1 = 3.75e-06, x2 = 0.01199 | 0.0021 | 0.0024 | 0.0024 | 0.0026
x1 = 3.9e-06, x2 = 0.02499 | 0.0019 | 0.002 | 0.0023 | 0.0023
x1 = 4.07e-06, x2 = 0.03911 | 0.0015 | 0.0016 | 0.0017 | 0.0019
x1 = 4.26e-06, x2 = 0.05452 | 0.0014 | 0.0015 | 0.0017 | 0.0019
x1 = 7.5e-06, x2 = 0.01199 | 0.0037 | 0.0042 | 0.0044 | 0.0047
x1 = 7.81e-06, x2 = 0.02499 | 0.0034 | 0.0036 | 0.0041 | 0.0044
x1 = 8.15e-06, x2 = 0.03911 | – | 0.0032 | 0.0037 | 0.0041
x1 = 8.52e-06, x2 = 0.05452 | 0.0027 | 0.0029 | – | 0.0037
x1 = 1.124e-05, x2 = 0.01199 | 0.0053 | 0.006 | 0.0065 | 0.0071
x1 = 1.171e-05, x2 = 0.02499 | 0.0049 | 0.0053 | 0.0059 | 0.0065
x1 = 1.222e-05, x2 = 0.03911 | 0.0045 | 0.0048 | 0.0055 | 0.0062
x1 = 1.278e-05, x2 = 0.05452 | 0.0041 | 0.0044 | 0.0049 | 0.0055
x1 = 1.499e-05, x2 = 0.01199 | 0.0071 | 0.0078 | 0.0086 | 0.0094
x1 = 1.562e-05, x2 = 0.02499 | 0.0063 | 0.0071 | 0.0077 | 0.0089
x1 = 1.63e-05, x2 = 0.03911 | 0.006 | 0.0065 | 0.0075 | 0.0086
x1 = 1.704e-05, x2 = 0.05452 | 0.0056 | 0.0059 | 0.0066 | 0.0075
x1 = 1.874e-05, x2 = 0.01199 | 0.0085 | 0.0095 | – | –
x1 = 1.952e-05, x2 = 0.02499 | 0.0078 | 0.0088 | 0.0097 | –
x1 = 2.037e-05, x2 = 0.03911 | 0.0075 | 0.0082 | 0.0095 | –
x1 = 2.13e-05, x2 = 0.05452 | 0.0069 | 0.0075 | 0.0083 | 0.0094
x1 = 2.249e-05, x2 = 0.01199 | 0.0095 | – | – | –
x1 = 2.343e-05, x2 = 0.02499 | 0.0095 | – | – | –
x1 = 2.444e-05, x2 = 0.03911 | 0.0091 | 0.0098 | – | –
x1 = 2.556e-05, x2 = 0.05452 | 0.0082 | 0.009 | 0.01 | –
x1 = 2.981e-05, x2 = 0.05452 | 0.0092 | – | – | –

CC(=O)[O-].COCCn1cc[n+](C)c1 + O
100 kPa
Details | electrical conductivity [S/m] | viscosity [mPa·s]
293.15 K, x1 = 0.8395 | 0.408 | 54.79
293.15 K, x1 = 0.8942 | 0.338 | 58.87
303.15 K, x1 = 0.8942 | 0.495 | 32.66
308.15 K, x1 = 0.8659 | 0.636 | 25.93
318.15 K, x1 = 0.8659 | 0.925 | 17.73

CCCCCC[n+]1ccn(C)c1.N#C[S-] + [Cl-].[Li+] + CN1CCCC1=O
298.15 K, 101 kPa
Details | viscosity [mPa·s]
x1 = 0.001304, x2 = 0.1036 | 5.036
x1 = 0.001343, x2 = 0.0415 | 2.652
x1 = 0.001443, x2 = 0.07122 | 3.694
x1 = 0.002891, x2 = 0.1035 | 5.064
x1 = 0.002967, x2 = 0.07111 | 3.723
x1 = 0.00301, x2 = 0.04143 | 2.691
x1 = 0.004262, x2 = 0.1033 | 5.092
x1 = 0.004468, x2 = 0.071 | 3.75
x1 = 0.004767, x2 = 0.04136 | 2.745
x1 = 0.00607, x2 = 0.1032 | 5.12
x1 = 0.006095, x2 = 0.07088 | 3.806
x1 = 0.00649, x2 = 0.04129 | 2.765
x1 = 0.007465, x2 = 0.07079 | 3.848
x1 = 0.007616, x2 = 0.04124 | 2.776
x1 = 0.007643, x2 = 0.103 | 5.148
x1 = 0.008578, x2 = 0.07071 | 3.887
x1 = 0.008753, x2 = 0.1029 | 5.176
x1 = 0.009233, x2 = 0.04117 | 2.794
x1 = 0.01021, x2 = 0.1027 | 5.204
x1 = 0.0105, x2 = 0.04112 | 2.823
x1 = 0.0108, x2 = 0.07055 | 3.923
x1 = 0.01107, x2 = 0.1026 | 5.231
x1 = 0.01163, x2 = 0.04107 | 2.837
x1 = 0.01204, x2 = 0.07046 | 3.961

CCC(=O)[O-].CC[NH+]1CCNCC1 + CCCO
101 kPa
Details | viscosity [mPa·s]
298.15 K, x2 = 0.4017 | 47.45
308.15 K, x2 = 0.3041 | 39.45

N[C@@H](Cc1ccccc1)C(=O)O + CCCC[n+]1ccn(C)c1.[Br-] + O
viscosity [mPa·s], 101.3 kPa
Details | x1 = 0.0003605, x2 = 0 | x1 = 0.0007251, x2 = 0 | x1 = 0.001079, x2 = 0 | x1 = 0.001441, x2 = 0 | x1 = 0.001797, x2 = 0 | x1 = 0.00216, x2 = 0 | x1 = 0.002516, x2 = 0
293.15 K | 1.01 | 1.02 | 1.03 | 1.05 | 1.06 | 1.08 | 1.09
298.15 K | 0.8 | 0.81 | 0.83 | 0.84 | 0.85 | 0.87 | 0.88
303.15 K | 0.71 | 0.72 | 0.74 | 0.75 | 0.76 | 0.78 | 0.79
308.15 K | 0.63 | 0.64 | 0.66 | 0.67 | 0.68 | 0.7 | 0.71
313.15 K | 0.57 | 0.58 | 0.59 | 0.6 | 0.62 | 0.63 | 0.64

CC[n+]1ccn(C)c1.N#C[S-] + O
100 kPa
Details | viscosity [mPa·s]
288.15 K, x2 = 0.9443 | 1.96
293.15 K, x2 = 0.1006 | 22.55
293.15 K, x2 = 0.7981 | 4.08
293.15 K, x2 = 0.9105 | 2.27
303.15 K, x2 = 0.1948 | 13.75
303.15 K, x2 = 0.4011 | 9.55
303.15 K, x2 = 0.6887 | 4.72
308.15 K, x2 = 0 | 16.39
308.15 K, x2 = 0.1948 | 12.02
308.15 K, x2 = 0.6043 | 5.31
308.15 K, x2 = 0.6887 | 4.19
313.15 K, x2 = 0.1006 | 12.15
313.15 K, x2 = 0.9105 | 1.44
313.15 K, x2 = 0.9506 | 1.07
318.15 K, x2 = 0 | 12.43
318.15 K, x2 = 0.1948 | 9.38

CCCCCCCCCCCC[N+](CC)(CC)CC.O=S(=O)([N-]S(=O)(=O)C(F)(F)F)C(F)(F)F + O
101 kPa, x2 = 0.1247
Details | viscosity [mPa·s]
293.25 K | 157.4
298.05 K | 130.7
